# According to US20200267980A1, “Herbicidally Active Pyridyl-/Pyrimidyl-Pyrimidine Derivatives” (Syngenta Participations AG, priority 2017, published 2020):
# Experiments:
# Assay type in all cases: in vivo
# Lolium perenne (LOLPE) [1] = experiment: Post-emergence herbicidal activity, glasshouse pot test; parameters: key: 5=total damage to plant; 0=no damage to plant; conditions: 1000 g/ha, post-emergence spray after 8 days cultivation, evaluated after 13 days, damage score 0-5
# Description: (§1) Seeds of a variety of test species were sown in standard soil in pots: Triticum aestivium (TRZAW), Avena fatua (AVEFA), Alopecurus myosuroides (ALOMY), Echinochloa crus-galli (ECHCG), Lolium perenne (LOLPE), and Setaria faberi (SETFA). After 8 days cultivation (post-emergence) under controlled conditions in a glasshouse (at 24/16° C., day/night; 14 hours light; 65% humidity), the plants were sprayed with an aqueous spray solution derived from the formulation of the technical active ingredient in acetone/water (50:50) solution containing 0.5% Tween 20 (polyoxyethelyene sorbitan monolaurate, CAS RN 9005-64-5). The test plants were then grown in a glasshouse under controlled conditions (at 24/16° C., day/night; 14 hours light; 65% humidity) and watered twice daily. After 13 days, the test was evaluated (5=total damage to plant; 0=no damage to plant).
# Setaria faberi (SETFA) [2] = experiment: as above; parameters: key: 5=total damage to plant; 0=no damage to plant; conditions: 1000 g/ha, post-emergence spray after 8 days cultivation, evaluated after 13 days, damage score 0-5
# Description: as §1
# [3] = system: Echinochloa crus-galli (ECHCG); experiment: as above; parameters: key: 5=total damage to plant; 0=no damage to plant; conditions: 1000 g/ha, post-emergence spray after 8 days cultivation, evaluated after 13 days, damage score 0-5
# Description: as §1
# [4] = system: Triticum aestivium (TRZAW); experiment: as above; parameters: key: 5=total damage to plant; 0=no damage to plant; conditions: 1000 g/ha, post-emergence spray after 8 days cultivation, evaluated after 13 days, damage score 0-5
# Description: as §1
# [5] = system: Alopecurus myosuroides (ALOMY); experiment: as above; parameters: key: 5=total damage to plant; 0=no damage to plant; conditions: 1000 g/ha, post-emergence spray after 8 days cultivation, evaluated after 13 days, damage score 0-5
# Description: as §1
# Avena fatua (AVEFA) [6] = experiment: as above; conditions: 1000 g/ha, post-emergence spray after 8 days cultivation, evaluated after 13 days, damage score 0-5
# Description: as §1
# Lolium perenne (LOLPE) [7] = experiment: Pre-emergence herbicidal activity, glasshouse pot test; parameters: key: 5=total damage to plant; 0=no damage to plant; conditions: 1000 g/ha, pre-emergence spray, evaluated after 13 days, damage score 0-5
# Description: as §1, with “After” for “After 8 days”, “for one day (pre-emergence)” for “(post-emergence)”
# Setaria faberi (SETFA) [8] = experiment: as above; parameters: key: 5=total damage to plant; 0=no damage to plant; conditions: 1000 g/ha, pre-emergence spray, evaluated after 13 days, damage score 0-5
# Description: as §1, with “After” for “After 8 days”, “for one day (pre-emergence)” for “(post-emergence)”
# [9] = system: Echinochloa crus-galli (ECHCG); experiment: as above; parameters: key: 5=total damage to plant; 0=no damage to plant; conditions: 1000 g/ha, pre-emergence spray, evaluated after 13 days, damage score 0-5
# Description: as §1, with “After” for “After 8 days”, “for one day (pre-emergence)” for “(post-emergence)”
# [10] = system: Triticum aestivium (TRZAW); experiment: as above; parameters: key: 5=total damage to plant; 0=no damage to plant; conditions: 1000 g/ha, pre-emergence spray, evaluated after 13 days, damage score 0-5
# Description: as §1, with “After” for “After 8 days”, “for one day (pre-emergence)” for “(post-emergence)”
# Avena fatua (AVEFA) [11] = experiment: as above; parameters: key: 5=total damage to plant; 0=no damage to plant; conditions: 1000 g/ha, pre-emergence spray, evaluated after 13 days, damage score 0-5
# Description: as §1, with “After” for “After 8 days”, “for one day (pre-emergence)” for “(post-emergence)”
# [12] = system: Alopecurus myosuroides (ALOMY); experiment: as above; parameters: key: 5=total damage to plant; 0=no damage to plant; conditions: 1000 g/ha, pre-emergence spray, evaluated after 13 days, damage score 0-5
# Description: as §1, with “After” for “After 8 days”, “for one day (pre-emergence)” for “(post-emergence)”
Compound,"Control of weed species after post-emergence application, LOLPE (Lolium perenne (LOLPE) [1])","Control of weed species after post-emergence application, SETFA (Setaria faberi (SETFA) [2])","Control of weed species after post-emergence application, ECHCG [3]","Control of weed species after post-emergence application, TRAZW [4]","Control of weed species after post-emergence application, ALOMY [5]","Control of weed species after post-emergence application, AVEFA (Avena fatua (AVEFA) [6])","Control of weed species after pre-emergence application, LOLPE (Lolium perenne (LOLPE) [7])","Control of weed species after pre-emergence application, SETFA (Setaria faberi (SETFA) [8])","Control of weed species after pre-emergence application, ECHCG [9]","Control of weed species after pre-emergence application, TRAZW [10]","Control of weed species after pre-emergence application, AVEFA (Avena fatua (AVEFA) [11])","Control of weed species after pre-emergence application, ALOMY [12]"
O=C(CCC1CCCC1)Nc1cnc(-c2cncc(F)c2)nc1C(F)(F)F [Compound F19],1,4,4,0,0,2,1,4,4,1,1,0
O=C1CCCCN1c1cnc(-c2cncc(F)c2)nc1C(F)(F)F [Compound F29],1,5,4,0,0,3,1,3,2,1,0,1
CCC(=O)Nc1cnc(-c2cncc(F)c2)nc1C(F)(F)F [Compound F4],2,4,4,1,0,4,0,4,3,0,3,1
"CC(C)C(=O)N(C)c1cnc(-c2cncc(F)c2)nc1C(F)(F)F [Compound F20, N-[2-(5-fluoro-3-pyridyl)-4-(trifluoromethyl)pyrimidin-5-yl]-N,2-dimethyl-propanamide]",3,5,5,2,1,4,1,5,4,1,3,0
O=C(Nc1cnc(-c2cncc(F)c2)nc1C(F)(F)F)c1ccccc1 [Compound F10],1,5,5,1,0,2,1,4,4,0,1,0
O=C(COc1ccccc1)Nc1cnc(-c2cncc(F)c2)nc1C(F)(F)F [Compound F18],1,4,4,1,0,3,0,4,3,0,1,0
O=C(Nc1cnc(-c2cncc(F)c2)nc1C(F)(F)F)C1CCC1 [Compound F26],2,5,5,1,1,4,0,4,3,1,1,0
CC(=O)Nc1cnc(-c2cncnc2)nc1C(F)(F)F [Compound F31],2,4,4,1,1,3,1,4,4,1,2,1
O=C(CC(F)(F)F)Nc1cnc(-c2cncc(F)c2)nc1C(F)(F)F [Compound F23],2,5,5,0,0,3,0,5,3,0,0,0
CCCC(=O)Nc1cnc(-c2cncc(F)c2)nc1C(F)(F)F [Compound F33],2,5,4,1,1,3,0,4,4,1,1,0
O=C1CCCN1c1cnc(-c2cncc(F)c2)nc1C(F)(F)F [Compound F22],1,5,5,1,0,3,0,5,3,0,0,0
